Reference: patent US9068231B2, “Method for screening cancer therapeutic agent using galectin-3, GSK-3β, and fascin-1” (National Cancer Center, priority 2010, dated 2015)

Legend:
Format in all cases: cell-based, human
MKN-28 cells [1] = test: Immunocytochemistry (fascin-1, F-actin, cell morphology); conditions: confocal microscopy
Experimental: (§1) (A) mRNA and protein levels of galectin-3 and fascin-1 in human gastric cancer MKN-28 cells after transfection with scrambled siRNA (scRNA) or galectin-3 siRNA at two different concentrations (5 and 10 nmol/L). Total RNA and protein obtained from the cells harvested 48 hrs after the transfection were analyzed by RT-PCR and Western blotting. β-actin was used as a loading control. (B) Immunocytochemical analysis of scRNA or galectin-3 siRNA-transfected MKN-28 cells by DAPI (blue), anti-fascin-1 FITC (green) and anti-F-actin Texas Red (red) was detected with a confocal microscope. Bars represent a length of 10 μm. (C and D) A histogram depicting the migration of galectin-3 silenced cells. The results of the migration assay are presented with a statistical significance (P<0.0005) (C), and in cell photographs (D). (E) Expression levels of galectin-3 and fascin-1 in SNU-638 cells were determined by Western blotting after transfection with pcDNA3.1/NT-GFP-Galectin-3 and vector control of pcDNA3.1/NT-GFP. β-actin was used as a loading control;
(A) Fascin-1 protein expression in MKN-28 cells transfected with scrambled siRNA (scRNA) or fascin-1 siRNA. β-actin was used as a loading control. (B) Immunocytochemical analysis of MKN-28 cells transfected with scRNA or fascin-1 siRNA by DAPI (blue), anti-fascin-1 FITC (green) and anti-F-actin Texas Red (red) was conducted using confocal microscopy. Bars represent 10 μm in length. (C) Cell migration in fascin-1-silenced MKN-28 cells. Results of the migration assay are presented as a histogram, with statistical significance (P<0.0004). ([…]) (D) Colony formation assay, (E) invasion assay, and (F) wound healing assay of MKN-28 cells were performed with transfected galectin-3 and fascin-1 siRNAs. Results of the colony formation assay and invasion assay are shown as a histogram, with statistical significance (P<0.0005). Cell migration was measured by microscopy;
(§2) Cells cultured in chamber slides were fixed and blocked with 5% bovine serum albumin (BSA) in PBS and then incubated with primary anti-galectin-3, anti-fascin-1, anti-GSK-3β, anti-β-catenin antibodies diluted (1:200) in PBS. The cells were conjugated with the secondary antibodies labeled with FITC, Cy5 (Zymed), or Texas Red-X phalloidin (Invitrogen). The samples were treated with a mounting medium, and analyzed with a confocal microscope (Carl-Zeiss).

SNU638 cells [2] = test: Transfilter migration assay in galectin-3-overexpressing SNU638 cells; conditions: SNU638 cells infected with galectin-3 lenti-virus
Experimental: (§3) (A) Expression levels of galectin-3 and fascin-1 were detected by Western blot analysis in SNU-638 cells which were infected with a lenti-virus containing LacZ or galectin-3 and then transfected with fascin-1 siRNA or scrambled RNA as a negative control. β-actin was used as a loading control. (B and C) These cells were analyzed by migration assay (B) and invasion assay (C), presented as histograms (P<0.0005);
(§4) Transfilter migration and invasion assays were performed with 8.0-μm pore inserts in a 24-well Transwell. For this assay, MKN-28 and SNU638 cells were transfected overnight with siRNAs. Then, they were isolated and added to the upper chamber of a Transwell with 0.5 mg/mL collagen type 1 (BD Bioscience)-coated filters in migration assay. The invasion assay was performed using 1/15 diluted Matrigel (BD Bioscience)-coated filters at 2×10^4 cells/well. RPMI 1640 supplemented with 10% fetal bovine serum and 1% antibiotics was added to the lower chamber and the cells were allowed to incubate for 20 hours. Migrating and invading cells were quantified after H&E staining. Each experiment was performed in triplicate and mean values are presented. A wound healing assay was performed according to the published protocol (Liang C C, Park A Y, Guan J L. In vitro scratch assay: a convenient and inexpensive method for analysis of cell migration in vitro. Nat Protoc 2007; 2:329-33).

MKN-28 cells [3] = test: Wound healing assay
Experimental: as §4

MKN-28 cells [4] = test: Invasion assay (Matrigel-coated filters); conditions: 20 hours
Experimental: as §4

SNU638 cells [5] = test: Invasion assay in galectin-3-overexpressing SNU638 cells; conditions: SNU638 cells infected with galectin-3 lenti-virus
Experimental: as §3, §4

MKN-28 cells [6] = test: Colony formation (soft agar growth) assay; conditions: 3 weeks
Experimental: A layer of 0.5 mL RPMI 1640 containing 0.5% agar and 5% fetal bovine serum was placed in 24-well plates. After solidification of this bottom layer, cells transfected with galectin-3 and fascin-1 siRNAs (1.25×10^4 per well) were poured into a top layer of 0.25 mL RPMI 1640 containing 0.3% agar and 5% fetal bovine serum. Colonies were scored by microscopic examination after 3 weeks. All samples were prepared in triplicate.

fascin-1 [7] = test: RT-PCR and Western blotting of fascin-1 after siRNA transfection in MKN-28 cells
Experimental: as §1, with “The results of the migration assay are presented with a statistical significance (P<0.0005) (C), and in cell photographs (D).” left out
(A) Fascin-1 protein expression in MKN-28 cells transfected with scrambled siRNA (scRNA) or fascin-1 siRNA. β-actin was used as a loading control. […] Cell migration was measured by microscopy; […]
(§5) For use in Western blotting and immunoprecipitation, cell lysates were prepared in RIPA buffer containing a protease inhibitor cocktail. […] Proteins were detected by Western Blotting with anti-galectin-3, anti-β-catenin, anti-GSK-3β and anti-TCF-4. […]

fascin-1 [8] = test: Western blot of fascin-1 in galectin-3-overexpressing SNU638 cells; conditions: SNU638 cells infected with galectin-3 lenti-virus
Experimental: as §3
(§6) For use in Western blotting and immunoprecipitation, cell lysates were prepared in RIPA buffer containing a protease inhibitor cocktail. Immunoblotting was performed with anti-galectin-3, anti-fascin-1, anti-GSK-3β, anti-TCF-4 (Santa-Cruz), anti-GSK-3β[pS^[…]] (biosourse), anti-β-catenin and anti-lamin A/C (Cell-Signaling), and anti-β-actin (Sigma). Immunoprecipitation was performed with A/G agarose beads coated with anti-galectin-3 and anti-β-catenin. Proteins were detected by Western Blotting with anti-galectin-3, anti-β-catenin, anti-GSK-3β and anti-TCF-4. Mouse/rabbit IgG was used as a negative control.
The full-length human galectin-3 gene cloned in the expression vector pcDNA3.1-NT-GFP-gal3 was amplified by PCR using a primer set of 5′-[…]-3′ (SEQ ID NO. 13) and 5′-[…]-3′ (SEQ ID NO. 14). The PCR product thus obtained was cloned into pcDNA3.1-NT-GFP using the TA cloning method (Invitrogen). […]

MKN-28 cells [9] = test: Transfilter migration assay; conditions: 20 hours, collagen type 1-coated filters
Experimental: as §4

[10] = tested on: phosphorylated GSK-3β, β-catenin; test: Western blotting of nuclear and cytosol fractions; conditions: MKN-28 cells
Experimental: (§7) Whole-cell lysate was used as a positive control. […] Whole-cell lysates were used as a positive control. (C) Chromatin immunoprecipitation assay was performed as described in the Materials and Methods of the Example section. Total genomic DNA on an input lane was used as a control for the PCR reaction. (D) Luciferase activity of TCF4 in lacZ and galectin-3 overexpressing cells. Luciferase assay was performed as described in the Example section. A construct of SP1 consensus was used as a negative control. […] Lamin A/C was used as a nuclear fraction control;
as §6

GSK-3β, β-catenin = test: Immunocytochemistry of GSK-3β and β-catenin localization; conditions: galectin-3-silenced cells, confocal microscope
Experimental: DAPI was used to figure out the nucleus (blue). Bars represent a 10 μm length;
as §2

galectin-3 = test: RT-PCR and Western blotting of galectin-3 after siRNA transfection; conditions: MKN-28 cells, siRNA 5 and 10 nmol/L, 48 hrs after transfection
Experimental: as §1, with “control; […]” for “control;”
as §5

β-catenin/TCF-4 = test: Immunoprecipitation and Western blot of GSK-3β, β-catenin and TCF-4 interaction; conditions: MKN-28 cells, immunoprecipitation
Experimental: as §7, §6

fascin-1 promoter = test: Chromatin immunoprecipitation assay on fascin-1 promoter; conditions: ChIP assay, with or without galectin-3
Experimental: as §7
Chromatin immunoprecipitation assays were performed using a chIP assay kit (Upstate), according to the manufacturer's instructions. Anti-TCF4, anti-β-catenin, anti-galectin-3, and rabbit IgG were used to immunoprecipitate DNA-containing complexes. Primer was prepared with fascin-1 promoter binding sites: fascin-1 promoter (−1321), 5′-[…]-3′ (SEQ ID NO. 11) and (−1061) 5′-[…]-3′ (SEQ ID NO. 12), followed by performing PCR.

Substance | F-actin localization (MKN-28 cells [1]) | cell morphology (MKN-28 cells [1]) | cell migration increased by galectin-3 overexpression (SNU638 cells [2]) | wound healing (MKN-28 cells [3]) | cell invasion (MKN-28 cells [4]) | cell invasion by galectin-3 overexpression (SNU638 cells [5]) | colony formation (MKN-28 cells [6]) | fascin-1 protein expression (fascin-1 [7]; fascin-1 siRNA, Western blot) | level of fascin-1 protein (fascin-1 [8]) | total number of migrated cells / cell migration (MKN-28 cells [9]) | fascin-1 expression in the cytosol (immunocytochemistry) (MKN-28 cells [1]) | level of phosphorylated GSK-3β [10] | level of β-catenin [10] | localization of GSK-3β (GSK-3β, β-catenin) | localization of β-catenin (GSK-3β, β-catenin) | expression levels of mRNAs and proteins of galectin-3 (galectin-3) | expression levels of mRNAs and proteins of fascin-1 (fascin-1 [7]; galectin-3 siRNA 5 and 10 nmol/L, 48 hrs after transfection) | interaction between GSK-3β and β-catenin (β-catenin/TCF-4) | interaction between β-catenin and TCF-4 (β-catenin/TCF-4) | binding of β-catenin and TCF-4 to the promoter regions of fascin-1 (fascin-1 promoter)
5′-UCCAGCAAGAAUGCCAGCUGCU ACU-3′ (listed as RNA, chemistry not given here) [fascin-1 siRNA, siRNA silencing fascin-1, obtained from Invitrogen; called a candidate therapeutic agent] | appeared only in cell-cell contact areas | changed to a round shape without spikes | significantly reduced | significantly reduced | significantly reduced | inhibitory effect | significantly reduced | reduced fascin-1 expression | diminished | decreased the migration | – | – | – | – | – | – | – | – | – | –
5′-AUAUGAAGCACUGGUGAGGUCUAUG-3′ (listed as RNA, chemistry not given here) [galectin-3 siRNA, siRNA silencing galectin-3, obtained from Invitrogen] | appeared only at cell-cell contact areas | became round in shape and did not have any protruding regions | – | significantly reduced | significantly reduced | – | significantly reduced | – | – | reduced by almost half | diminished in the cytosol | decreased in both the nucleus and the cytosol | decreased in both the nucleus and the cytosol | located only in cytosol | not detected either in the nucleus or cytosol | reduction in the expression levels | reduction in the expression levels | weakened | diminished | lost their binding activity
